Measurements published in paper PMC3914206.

What was measured:
Assay type in all cases: binding
panel of 442 kinases [1] = target: T1, panel of 442 kinases (Homo sapiens, UniProt Q00526); details: Compound Concentration 10 µM
T1 construct: purchased KINOMEscan
Excerpt: (§1) We assessed the selectivity of members of this scaffold using the KINOMEscan methodology across a near comprehensive panel of 442 kinases [[18,27]].

panel of 442 kinases [2] = target: T2, panel of 442 kinases (Homo sapiens, UniProt P78362); details: kinase SRPK2; compound concentration 10 µM
T2 construct: purchased KINOMEscan
T2 sequence (P78362 whole entry): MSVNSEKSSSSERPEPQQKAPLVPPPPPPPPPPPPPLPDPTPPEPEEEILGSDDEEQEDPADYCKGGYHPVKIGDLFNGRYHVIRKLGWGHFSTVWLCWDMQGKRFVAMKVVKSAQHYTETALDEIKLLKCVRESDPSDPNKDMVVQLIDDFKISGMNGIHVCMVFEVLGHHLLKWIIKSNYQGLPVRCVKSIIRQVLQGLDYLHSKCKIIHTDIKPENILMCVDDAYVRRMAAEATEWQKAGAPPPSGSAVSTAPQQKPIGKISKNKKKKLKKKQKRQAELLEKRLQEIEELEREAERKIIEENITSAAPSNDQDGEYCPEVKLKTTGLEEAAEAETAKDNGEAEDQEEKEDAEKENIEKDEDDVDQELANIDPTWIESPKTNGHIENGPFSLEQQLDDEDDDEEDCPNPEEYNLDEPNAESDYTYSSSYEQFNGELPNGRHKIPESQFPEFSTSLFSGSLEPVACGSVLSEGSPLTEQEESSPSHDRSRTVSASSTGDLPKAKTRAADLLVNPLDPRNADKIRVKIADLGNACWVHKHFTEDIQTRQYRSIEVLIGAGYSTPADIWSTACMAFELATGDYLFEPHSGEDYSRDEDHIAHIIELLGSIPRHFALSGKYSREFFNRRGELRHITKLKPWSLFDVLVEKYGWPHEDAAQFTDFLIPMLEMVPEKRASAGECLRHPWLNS
Excerpt: as §1

panel of 442 kinases [3] = target: T3, panel of 442 kinases (Homo sapiens, UniProt P00519, Q252H); details: Compound Concentration 10 µM
T3 construct: purchased KINOMEscan
Excerpt: as §1

T1 sequence (Q00526 whole entry): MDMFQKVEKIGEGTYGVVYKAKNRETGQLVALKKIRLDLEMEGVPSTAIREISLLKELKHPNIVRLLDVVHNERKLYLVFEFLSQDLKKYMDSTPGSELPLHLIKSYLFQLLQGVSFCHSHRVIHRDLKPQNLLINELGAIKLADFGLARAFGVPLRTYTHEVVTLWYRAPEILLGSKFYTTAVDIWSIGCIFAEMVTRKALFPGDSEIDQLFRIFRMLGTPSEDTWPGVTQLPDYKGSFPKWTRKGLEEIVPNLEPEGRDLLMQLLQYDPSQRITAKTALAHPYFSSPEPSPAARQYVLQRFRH

Row | SMILES | KINOMEscan: CDK3 (panel of 442 kinases [1]) | % Ctrl, SRPK2 (panel of 442 kinases [2]) [% Ctrl] | KINOMEscan: ABL1(Q252H)-nonphosphorylated (panel of 442 kinases [3]) | KINOMEscan: ABL1(Q252H)-phosphorylated (panel of 442 kinases [3])
1 | COc1cc(C(=O)N2CCC(N3CCN(C)CC3)CC2)ccc1Nc1ncc2c(n1)N(C)c1ccccc1C(=O)N2C [15 (LRRK2-IN-1)] | 100 | 100 | 100 | 100
2 | CCOc1cc(C(=O)N2CCC(N3CCN(C)CC3)CC2)ccc1Nc1ncc2c(n1)N(C1CCCC1)c1ccccc1C(=O)N2C [Compound 26] | 100 | 100 | 100 | 100
3 | COc1cc(C(=O)N2CCC(N3CCN(C)CC3)CC2)ccc1Nc1ncc2c(n1)N1CCc3cccc(c31)C(=O)N2C [Compound 24] | – | 98 | – | –
4 | COc1cc(C(=O)N2CCC(N3CCN(C)CC3)CC2)ccc1Nc1ncc2c(n1)N(C1CCCC1)c1ccccc1C(=O)N2C [Compound 25, 11-cyclopentyl-2-((2-methoxy-4-(4-(4-methylpiperazin-1-yl)piperidine-1-carbonyl)phenyl)amino)-5-methyl-5H-benzo[e]pyrimido[5,4-b][1,4]diazepin-6(11H)-one] | 100 | 86 | 89 | 83
